Laboratory results taken from the NIST ThermoML archive (doi:10.1021/acs.jced.7b00106).

Details: Hot wire method

FC(F)(F)/C=C/Cl [(E)-1-chloro-3,3,3-trifluoroprop-1-ene]
Details	thermal conductivity [W/m/K]
343.36 K, 65455 kPa, Liquid	0.09919
343.39 K, 244 kPa, Gas	0.01403
343.41 K, 34281 kPa, Liquid	0.08798
343.43 K, 53923 kPa, Liquid	0.09546
343.44 K, 254 kPa, Gas	0.0143
343.54 K, 43743 kPa, Liquid	0.09133
343.62 K, 34264 kPa, Liquid	0.08757
343.63 K, 177 kPa, Gas	0.01444
343.68 K, 26051 kPa, Liquid	0.08479
343.71 K, 368 kPa, Gas	0.01422
343.72 K, 113 kPa, Gas	0.01433
343.77 K, 19020 kPa, Liquid	0.08131
343.82 K, 116 kPa, Gas	0.01436
343.85 K, 65463 kPa, Liquid	0.09884
343.89 K, 252 kPa, Gas	0.01433
343.9 K, 26047 kPa, Liquid	0.08436
343.93 K, 12786 kPa, Liquid	0.07777
343.93 K, 53925 kPa, Liquid	0.09489
343.97 K, 19023 kPa, Liquid	0.08066
344.06 K, 43740 kPa, Liquid	0.09102
344.06 K, 65472 kPa, Liquid	0.09859
344.08 K, 176 kPa, Gas	0.01441
344.15 K, 365 kPa, Gas	0.0142
344.15 K, 53918 kPa, Liquid	0.09481
344.17 K, 12778 kPa, Liquid	0.07722
344.2 K, 113 kPa, Gas	0.01446
344.28 K, 117 kPa, Gas	0.01435
344.3 K, 43734 kPa, Liquid	0.09086
344.35 K, 250 kPa, Gas	0.01435
344.48 K, 465 kPa, Gas	0.01396
344.56 K, 175 kPa, Gas	0.01444
344.7 K, 114 kPa, Gas	0.01426
344.79 K, 119 kPa, Gas	0.01436
344.84 K, 248 kPa, Gas	0.01433
344.84 K, 463 kPa, Gas	0.01404
344.95 K, 465 kPa, Gas	0.01434
345.08 K, 174 kPa, Gas	0.01445
345.19 K, 360 kPa, Gas	0.01419
345.23 K, 114 kPa, Gas	0.01452
345.31 K, 120 kPa, Gas	0.01441
345.34 K, 463 kPa, Gas	0.01431
345.37 K, 246 kPa, Gas	0.01436
345.44 K, 465 kPa, Gas	0.0143
345.7 K, 358 kPa, Gas	0.01431
345.9 K, 245 kPa, Gas	0.01451
361.58 K, 586 kPa, Fluid (supercritical or subcritical phases)	0.01605
361.67 K, 483 kPa, Fluid (supercritical or subcritical phases)	0.01602
361.68 K, 45282 kPa, Liquid	0.08799
361.69 K, 33938 kPa, Liquid	0.0832
361.69 K, 33954 kPa, Liquid	0.08326
361.7 K, 45281 kPa, Liquid	0.08796
361.73 K, 23489 kPa, Liquid	0.07844
361.74 K, 23503 kPa, Liquid	0.07846
361.77 K, 371 kPa, Fluid (supercritical or subcritical phases)	0.01613
361.79 K, 26408 kPa, Liquid	0.07982
361.8 K, 26407 kPa, Liquid	0.07977
361.83 K, 39898 kPa, Liquid	0.0857
361.83 K, 39907 kPa, Liquid	0.0857
361.88 K, 33923 kPa, Liquid	0.08317
361.89 K, 33938 kPa, Liquid	0.0832
361.92 K, 588 kPa, Fluid (supercritical or subcritical phases)	0.01611
361.93 K, 45278 kPa, Liquid	0.08791
361.94 K, 45270 kPa, Liquid	0.08806
361.98 K, 23477 kPa, Liquid	0.07836
361.98 K, 23492 kPa, Liquid	0.07838
362.01 K, 484 kPa, Fluid (supercritical or subcritical phases)	0.01607
362.05 K, 26376 kPa, Liquid	0.07972
362.05 K, 26398 kPa, Liquid	0.07971
362.05 K, 39862 kPa, Liquid	0.08563
362.08 K, 39906 kPa, Liquid	0.08546
362.14 K, 33914 kPa, Liquid	0.08314
362.14 K, 33942 kPa, Liquid	0.08313
362.16 K, 19344 kPa, Liquid	0.07625
362.18 K, 23467 kPa, Liquid	0.07857
362.19 K, 8420 kPa, Liquid	0.06998
362.2 K, 3010 kPa, Liquid	0.06622
362.2 K, 8440 kPa, Liquid	0.07
362.2 K, 45249 kPa, Liquid	0.0878
362.2 K, 45283 kPa, Liquid	0.08787
362.21 K, 3023 kPa, Liquid	0.06627
362.21 K, 23488 kPa, Liquid	0.07836
362.23 K, 790 kPa, Liquid	0.06431
362.23 K, 805 kPa, Liquid	0.06452
362.24 K, 5520 kPa, Liquid	0.06804
362.24 K, 5538 kPa, Liquid	0.06811
362.26 K, 19400 kPa, Liquid	0.07636
362.27 K, 587 kPa, Fluid (supercritical or subcritical phases)	0.01619
362.3 K, 11679 kPa, Liquid	0.07201
362.3 K, 11690 kPa, Liquid	0.07201
362.31 K, 39856 kPa, Liquid	0.08563
362.31 K, 39891 kPa, Liquid	0.08561
362.32 K, 26374 kPa, Liquid	0.07971
362.32 K, 26405 kPa, Liquid	0.07971
362.37 K, 484 kPa, Fluid (supercritical or subcritical phases)	0.0162
362.41 K, 33911 kPa, Liquid	0.0832
362.42 K, 8419 kPa, Liquid	0.06999
362.42 K, 33938 kPa, Liquid	0.08309
362.44 K, 8433 kPa, Liquid	0.06997
362.46 K, 3010 kPa, Liquid	0.0662
362.47 K, 3011 kPa, Liquid	0.0662
362.47 K, 15419 kPa, Liquid	0.0741
362.47 K, 23460 kPa, Liquid	0.07827
362.48 K, 5516 kPa, Liquid	0.06801
362.48 K, 15443 kPa, Liquid	0.07414
362.48 K, 23476 kPa, Liquid	0.07831
362.48 K, 45268 kPa, Liquid	0.08777
362.48 K, 45271 kPa, Liquid	0.08777
362.49 K, 790 kPa, Liquid	0.06443
362.49 K, 5526 kPa, Liquid	0.06804
362.5 K, 790 kPa, Liquid	0.06446
362.51 K, 370 kPa, Fluid (supercritical or subcritical phases)	0.01626
362.54 K, 11661 kPa, Liquid	0.0719
362.55 K, 11680 kPa, Liquid	0.07196
362.57 K, 39863 kPa, Liquid	0.08553
362.58 K, 39864 kPa, Liquid	0.08552
362.6 K, 26399 kPa, Liquid	0.07968
362.6 K, 26401 kPa, Liquid	0.07967
362.61 K, 19433 kPa, Liquid	0.07636
362.65 K, 15399 kPa, Liquid	0.07408
362.66 K, 587 kPa, Fluid (supercritical or subcritical phases)	0.0163
362.66 K, 15425 kPa, Liquid	0.07408
362.67 K, 8422 kPa, Liquid	0.06992
362.68 K, 8413 kPa, Liquid	0.06988
362.69 K, 33907 kPa, Liquid	0.08302
362.69 K, 33929 kPa, Liquid	0.08306
362.7 K, 19433 kPa, Liquid	0.07633
362.74 K, 5502 kPa, Liquid	0.06792
362.75 K, 3008 kPa, Liquid	0.06615
362.75 K, 3026 kPa, Liquid	0.06618
362.75 K, 5530 kPa, Liquid	0.06798
362.75 K, 23458 kPa, Liquid	0.07811
362.75 K, 23492 kPa, Liquid	0.07827
362.75 K, 45227 kPa, Liquid	0.08785
362.76 K, 484 kPa, Fluid (supercritical or subcritical phases)	0.01624
362.76 K, 45255 kPa, Liquid	0.08771
362.77 K, 783 kPa, Liquid	0.06438
362.77 K, 802 kPa, Liquid	0.06442
362.8 K, 11664 kPa, Liquid	0.07188
362.81 K, 11670 kPa, Liquid	0.07191
362.83 K, 15386 kPa, Liquid	0.07403
362.86 K, 39872 kPa, Liquid	0.08551
362.87 K, 15400 kPa, Liquid	0.07403
362.87 K, 39835 kPa, Liquid	0.08548
362.89 K, 367 kPa, Fluid (supercritical or subcritical phases)	0.01631
362.89 K, 26375 kPa, Liquid	0.07958
